From the NIST ThermoML archive (doi:10.1021/je100679s)
± gives the expanded uncertainty stated by the source.

Experiments:
[1] = 101 kPa, Liquid; for electrical conductivity: DDS-307 conductivity meter
[2] = xn = mol fraction of the nth substance listed; settings: 101 kPa, Liquid, x2 = 0

Row | Structure (SMILES) | mass density ([1]; 293.15 K) | mass density ([1]; 298.15 K) | mass density ([1]; 303.15 K) | mass density ([1]; 308.15 K) | mass density ([1]; 313.15 K) | mass density ([1]; 318.15 K) | mass density ([1]; 323.15 K) | mass density ([1]; 328.15 K) | mass density ([1]; 333.15 K) | further results
1 | COC(=O)OC [dimethyl carbonate] | 1069.92 ± 0.69 kg/m3 | 1063.34 ± 0.67 kg/m3 | 1056.72 ± 0.65 kg/m3 | 1050.07 ± 0.62 kg/m3 | 1043.39 ± 0.6 kg/m3 | 1036.69 ± 0.57 kg/m3 | 1029.94 ± 0.55 kg/m3 | 1023.25 ± 0.53 kg/m3 | 1016.32 ± 0.5 kg/m3 | –
2 | COC(=O)OC [dimethyl carbonate] + CCCCCCn1cc[n+](C)c1C.O=S(=O)([N-]S(=O)(=O)C(F)(F)F)C(F)(F)F | – | – | – | – | – | – | – | – | – | mass density ([2]; 293.15 K): 1069.92 ± 0.69 kg/m3; mass density ([2]; 298.15 K): 1063.34 ± 0.67 kg/m3; mass density ([2]; 303.15 K): 1056.72 ± 0.65 kg/m3; mass density ([2]; 308.15 K): 1050.07 ± 0.62 kg/m3; mass density ([2]; 313.15 K): 1043.39 ± 0.6 kg/m3; mass density ([2]; 318.15 K): 1036.69 ± 0.57 kg/m3; mass density ([2]; 323.15 K): 1029.94 ± 0.55 kg/m3; mass density ([2]; 328.15 K): 1023.25 ± 0.53 kg/m3; mass density ([2]; 333.15 K): 1016.32 ± 0.5 kg/m3
3 | CCCCCCn1cc[n+](C)c1C.O=S(=O)([N-]S(=O)(=O)C(F)(F)F)C(F)(F)F | 1358.19 ± 2.9 kg/m3 | 1353.11 ± 2.8 kg/m3 | 1348.71 ± 2.8 kg/m3 | 1344.29 ± 2.8 kg/m3 | 1339.88 ± 2.8 kg/m3 | 1335.47 ± 2.7 kg/m3 | 1331.06 ± 2.7 kg/m3 | 1326.65 ± 2.7 kg/m3 | 1322.24 ± 2.7 kg/m3 | electrical conductivity ([1]; 298.15 K): 0.108 ± 0.0068 S/m; electrical conductivity ([1]; 303.15 K): 0.158 ± 0.0097 S/m; electrical conductivity ([1]; 308.15 K): 0.213 ± 0.013 S/m; electrical conductivity ([1]; 313.15 K): 0.271 ± 0.016 S/m; electrical conductivity ([1]; 318.15 K): 0.319 ± 0.019 S/m; electrical conductivity ([1]; 323.15 K): 0.369 ± 0.022 S/m; electrical conductivity ([1]; 328.15 K): 0.426 ± 0.026 S/m; electrical conductivity ([1]; 333.15 K): 0.48 ± 0.029 S/m
